Data set [1] in a line: Antiinflammatory activity in human RBC assessed as membrane stabilization at 50 ug/mL after 30 mins by UV-Visible spectrophotometry. The class given is functional, Erythrocyte.
Another data set deals with Erythrocyte. The data set is described as follows: Antiinflammatory activity in human RBC assessed as membrane stabilization after 30 mins by UV-Visible spectrophotometry. The class given is functional.
The nature of data set [2]: In vitro antiarthritic activity assessed as inhibition of bovine serum albumin denaturation at 400 ug/mL incubated for 20 mins at 37 degC following rise in temperature up to 57 degC for 3 mins by UV-Visible spectrophotometry. The class given is functional.
The nature of data set [3]: Antiinflammatory activity in human RBC assessed as membrane stabilization at 10 ug/mL after 30 mins by UV-Visible spectrophotometry. The class given is functional, Erythrocyte.
Data set [4] in a line: In vitro antiarthritic activity assessed as inhibition of bovine serum albumin denaturation at 200 ug/mL incubated for 20 mins at 37 degC following rise in temperature up to 57 degC for 3 mins by UV-Visible spectrophotometry. The class given is functional.
The nature of data set [5]: In vitro antiarthritic activity assessed as inhibition of bovine serum albumin denaturation incubated for 20 mins at 37 degC following rise in temperature up to 57 degC for 3 mins by UV-Visible spectrophotometry. The class given is functional.
Data set [6] in a line: In vitro antiarthritic activity assessed as inhibition of bovine serum albumin denaturation at 800 ug/mL incubated for 20 mins at 37 degC following rise in temperature up to 57 degC for 3 mins by UV-Visible spectrophotometry. The class given is functional.
Data set [7] can be described thus: In vitro antiarthritic activity assessed as inhibition of bovine serum albumin denaturation at 50 ug/mL incubated for 20 mins at 37 degC following rise in temperature up to 57 degC for 3 mins by UV-Visible spectrophotometry. The class given is functional.
A short description of data set [8]: In vitro antiarthritic activity assessed as inhibition of bovine serum albumin denaturation at 100 ug/mL incubated for 20 mins at 37 degC following rise in temperature up to 57 degC for 3 mins by UV-Visible spectrophotometry. The class given is functional.
Data set [9] is described as follows: Antiinflammatory activity in human RBC assessed as membrane stabilization at 100 ug/mL after 30 mins by UV-Visible spectrophotometry. The class given is functional, Erythrocyte.
A short description of data set [10]: Antiinflammatory activity in human RBC assessed as membrane stabilization at 200 ug/mL after 30 mins by UV-Visible spectrophotometry. The class given is functional, Erythrocyte.
Data set [11] has as its system Salmonella typhimurium. The data set is described as follows: Mutagenic activity in Salmonella typhimurium TA 98 assessed as increase in revertants at 0.012 to 1.660 mg/plate after 48 hrs by Ames test relative to control. The class given is toxicity, organism-based. Particulars: salmonella enterica subsp. enterica serovar typhimurium. (In general: The Ames test detects mutagens through reverse mutation in bacteria.)

Data set [12] deals with Salmonella typhimurium. The data set is described as follows: Mutagenic activity in Salmonella typhimurium TA 98 assessed as increase in revertants at 0.039 to 5 mg/plate after 48 hrs by Ames test relative to control. The class given is toxicity, organism-based. Particulars: salmonella enterica subsp. enterica serovar typhimurium.
The test system of data set [13] is Salmonella typhimurium. The data set can be described thus: Mutagenic activity in Salmonella typhimurium TA 100 assessed as increase in revertants at 0.039 to 5 mg/plate after 48 hrs by Ames test relative to control. Particulars: salmonella enterica subsp. enterica serovar typhimurium. The class given is toxicity, organism-based.
For data set [14], the system named is Salmonella typhimurium. The data set can be described thus: Mutagenic activity in Salmonella typhimurium TA 100 assessed as increase in revertants at 0.012 to 1.660 mg/plate after 48 hrs by Ames test in presence of S9 liver fraction relative to control. The class given is toxicity, organism-based. Particulars: salmonella enterica subsp. enterica serovar typhimurium.

Data set [15] concerns Salmonella typhimurium. The data set can be described thus: Mutagenic activity in Salmonella typhimurium TA 100 assessed as increase in revertants at 0.012 to 1.660 mg/plate after 48 hrs by Ames test relative to control. To be noted: salmonella enterica subsp. enterica serovar typhimurium. The class given is toxicity, organism-based.
In data set [16] the test system is Salmonella typhimurium. The data set is described as follows: Mutagenic activity in Salmonella typhimurium TA 100 assessed as increase in revertants at 0.039 to 5 mg/plate after 48 hrs by Ames test in presence of S9 liver fraction relative to control. The class given is toxicity, organism-based. Particulars: salmonella enterica subsp. enterica serovar typhimurium.

Data set [17] concerns Salmonella typhimurium. The data set is described as follows: Mutagenic activity in Salmonella typhimurium TA 98 assessed as increase in revertants at 0.039 to 5 mg/plate after 48 hrs by Ames test in presence of S9 liver fraction relative to control. The class given is toxicity, organism-based. Particulars: salmonella enterica subsp. enterica serovar typhimurium.
Data set [18] relates to Salmonella typhimurium. The data set can be described thus: Mutagenic activity in Salmonella typhimurium TA 98 assessed as increase in revertants at 0.012 to 1.660 mg/plate after 48 hrs by Ames test in presence of S9 liver fraction relative to control. The class given is toxicity, organism-based. Particulars: salmonella enterica subsp. enterica serovar typhimurium.

SMILES strings stand for the structures. Some results are limits rather than exact numbers.

For orientation: inhibition means the change of the read-out against control, counted positive when it falls. Turning to `O=C1NCc2ccc(cc2)-c2cccc(c2)-c2ccc(cc2)CNC(=O)c2cccc(c2)OCc2cc(cc([N+](=O)[O-])c2)COc2cccc1c2`, the Activity in [1] is 75.97%; in the data set with Erythrocyte, “Dose-dependent effect”; in data set [3], 66.71%; in [9], 85.66%; in data set [10] it was 95.5%. The inhibition is 82.1% in data set [2]; 73.1% in [4]; “Dose-dependent effect” in data set [5]; 94.4% in [6]; 23.6% in data set [7]; 49.6% in [8].
In the case of `O=C1NCc2ccc(cc2)-c2cccc(c2)-c2ccc(cc2)CNC(=O)c2cccc(c2)OCc2cccc(n2)COc2cccc1c2`, the Activity was 76.93% in [1]; “Dose-dependent effect” in the data set on Erythrocyte; 70.23% in [3]; 84.73% in data set [9]; 95.1% in data set [10]. The inhibition was 70% in data set [2]; 56.3% in data set [4]; “Dose-dependent effect” in data set [5]; 82.4% in data set [6]; 22% in data set [7]; 38.2% in data set [8].
As to `O=C1COc2ccccc2-c2ccccc2OCC(=O)NCc2ccc(cc2)-c2cccc(c2)-c2ccc(cc2)CN1`, the Activity is 85.65% in data set [1]; “Dose-dependent effect” in the data set on Erythrocyte; 74.2% in data set [3]; 93.77% in data set [9]; 96.03% in data set [10]. The inhibition in data set [2] was 81.4%; in [4], 76.2%; in [5], “Dose-dependent effect”; in data set [6], 98.2%; in [7], 40.5%; in [8] it was 61.9%.
`O=C1NCc2ccc(cc2)-c2cccc(c2)-c2ccc(cc2)CNC(=O)c2cccc(c2)OCc2ccc(cc2)-c2cccc(c2)-c2ccc(cc2)COc2cccc1c2`: the Activity was 71.74% in data set [1]; “Dose-dependent effect” in the data set on Erythrocyte; 61.89% in data set [3]; 82.51% in data set [9]; 91.59% in data set [10]. Further, the Ratio entry in the data set on Salmonella typhimurium [11], in the data set with Salmonella typhimurium [12], with Salmonella typhimurium [13], in the data set on Salmonella typhimurium [14], with Salmonella typhimurium [15] and in the data set on Salmonella typhimurium [16] was “<= 2” in each case. The Ratio result in the data set on Salmonella typhimurium [17] and with Salmonella typhimurium [18] was “<= 2” in each case. The inhibition in data set [2] was 68.6%; in [4] it was 48.5%; in data set [5], “Dose-dependent effect”; in [6] it was 78.2%; in data set [7], 12.6%; in data set [8], 25.2%.
`O=C1COc2cccc(c2)OCC(=O)NCc2ccc(cc2)-c2cccc(c2)-c2ccc(cc2)CN1`: the Activity in data set [1] is 85.4%; with Erythrocyte, “Dose-dependent effect”; in data set [3], 74.5%; in [10], 96.4%. Also, the inhibition in data set [2] is 83.3%; in [4] it was 60.5%; in data set [5], “Dose-dependent effect”; in [6], 96.8%; in data set [7], 14.5%; in data set [8] it was 25.4%.
As for `O=C1NCc2ccc(cc2)-c2cccc(c2)-c2ccc(cc2)CNC(=O)c2cccc(c2)OCc2cccc(c2)COc2cccc1c2`, the Activity is 72.53% in data set [1]; “Dose-dependent effect” with Erythrocyte; 64.27% in data set [3]; 83.07% in data set [9]; 93.03% in data set [10]. The inhibition in [2] is 78.3%; in [4], 63.4%; in data set [5], “Dose-dependent effect”; in data set [6], 90.5%; in data set [7], 19.4%; in data set [8] it was 44.8%.
For `O=C1NCc2ccc(cc2)-c2cccc(c2)-c2ccc(cc2)CNC(=O)c2cccc(c2)OCc2ccccc2-c2ccccc2COc2cccc1c2`, the Activity in data set [1] was 82.6%; in the data set on Erythrocyte, “Dose-dependent effect”; in data set [3] it was 70.27%; in data set [9], 91.2%; in data set [10] it was 93.3%. Further, the Ratio entry in the data set on Salmonella typhimurium [11], in the data set on Salmonella typhimurium [12], in the data set on Salmonella typhimurium [13], in the data set with Salmonella typhimurium [14], in the data set with Salmonella typhimurium [15] and in the data set with Salmonella typhimurium [16] was “<= 2” throughout. Further, the Ratio entry in the data set on Salmonella typhimurium [17] and with Salmonella typhimurium [18] was “<= 2” throughout. The inhibition is 75.7% in data set [2]; 67.8% in data set [4]; “Dose-dependent effect” in data set [5]; 87.8% in data set [6]; 39.2% in data set [7]; 49.5% in data set [8].
Regarding `O=C1NCc2ccc(cc2)-c2cccc(c2)-c2ccc(cc2)CNC(=O)c2cccc(c2)OCc2ccc(cc2)COc2cccc1c2`, the Activity in data set [1] was 66.7%; in the data set on Erythrocyte, “Dose-dependent effect”; in [3], 57.63%; in data set [9], 82.2%; in [10], 91.8%. The inhibition in [2] was 67.7%; in data set [4], 55.3%; in data set [5] it was “Dose-dependent effect”; in data set [6], 83.9%; in data set [7] it was 13.1%; in data set [8] it was 36.8%.
With `C[C@]12C=CC(=O)C=C1CC[C@@H]1[C@@H]2[C@@H](O)C[C@@]2(C)[C@H]1CC[C@]2(O)C(=O)CO` [PREDNISOLONE], the Activity was 57.94% in data set [1], 46.03% in data set [3], 84.87% in [9] and 91.01% in data set [10].
Regarding `O=C(O)Cc1ccccc1Nc1c(Cl)cccc1Cl`, the inhibition came to 21.3% in [2]; 15% in data set [4]; 76.5% in [6]; 5.3% in data set [7]; 10.9% in data set [8].
For `O=C1COc2ccc3ccccc3c2-c2c(ccc3ccccc23)OCC(=O)NCc2ccc(cc2)-c2cccc(c2)-c2ccc(cc2)CN1`, the Activity in data set [1] was 86.2%; in the data set on Erythrocyte it was “Dose-dependent effect”; in data set [3], 77.3%; in data set [9], 90.6%; in data set [10], 97.7%. For the same molecule, the inhibition in data set [2] is 69.9%; in [4], 59.7%; in [5], “Dose-dependent effect”; in data set [6], 81.9%; in data set [7], 11.7%; in [8], 37%.
With `O=C1NCc2ccc(cc2)-c2cccc(c2)-c2ccc(cc2)CNC(=O)c2cccc(c2)OCc2ccccc2COc2cccc1c2`, the Activity in [1] is 73.33%; in the data set on Erythrocyte it was “Dose-dependent effect”; in data set [3], 64.03%; in data set [9], 82.3%; in data set [10], 92.37%. Also, the inhibition in data set [2] was 81.9%; in [4], 72.1%; in [5], “Dose-dependent effect”; in data set [6] it was 92.4%; in data set [7], 25.4%; in [8], 50.1%.
For the molecule `O=C1COc2ccc3ccc(cc3c2)OCC(=O)NCc2ccc(cc2)-c2cccc(c2)-c2ccc(cc2)CN1`, the Activity is 85.5% in data set [1]; “Dose-dependent effect” with Erythrocyte; 76.5% in data set [3]; 90.9% in [9]; 97.2% in data set [10]. Further, the inhibition in [2] is 84.3%; in [4] it was 67.9%; in [5] it was “Dose-dependent effect”; in data set [6] it was 90.6%; in data set [7] it was 20.1%; in data set [8], 49.5%.

The values are drawn from ChEMBL document CHEMBL2029287, “Synthesis, study on anti-arthritic, anti-inflammatory activity and toxicity of some novel bis-oxy cyclophane diamides” (Bioorg Med Chem Lett, 2012).
